Series [1] deals with HCT15 (colon cancer cells). Kind of series: In vitro cytotoxic activity, MTT assay, HCT15. The format is cell-based, human. The settings on record: 24 h incubation with complex, mean ± standard deviation. As to the method:
(§1) To examine the possible anticancer effect of complexes 1, 2, and cisplatin, a panel of three human tumor cell lines, A549 (lung cancer cells), MCF7 (breast cancer cells) and HCT15 (colon cancer cells) was used. The different human carcinoma cell cultures (A549, MCF7, HCT15) were first seeded at the concentration of 2×10^4 cells per mL in their respective growth mediums containing 10% FBS (fetal bovine serum) in a 96-well tissue culture plate and were incubated for 72 h at 37° C., 5% CO2 in air and 90% relative humidity in a CO2 incubator. After that the cell cultures were incubated for 24 h with 100 μL of cisplatin and the complexes (1-3) having 100, 50, 25 and 12.5 μM concentrations, prepared in growth medium. Further, the cultures were incubated with 100 μL of vital mitochondrial tetrazolium dye (3-(4,5-dimethylthiazol-2-yl)-2,5-diphenyltetrazolium bromide) (0.5 mg/ml) in a CO2 incubator at 37° C. in the dark for 4 h. After incubation, purple colored formazan crystals were formed due to the reduction of dye by mitochondrial succinate dehydrogenase enzyme. The resultant crystals were solublized by adding 100 μL of dimethylsulfoxide (DMSO). The colored solution formed was thoroughly mixed and read spectrophotometrically at 570 nm with Lab systems Multiskan EX-Enzyme-linked immunosorbent assay (EX-ELISA) reader against a reagent blank. All data presented are mean±standard deviation.
(§2) The anticancer activity of complexes 1-3 as well as cisplatin was evaluated against a panel of representative human tumor cell lines, which include, lung cancer cells (A549), breast cancer cells (MCF7) and colon cancer cells (HCT15). The results of in vitro cytotoxic activity are expressed as IC50 (concentration causing 50% reduction in cell viability) and are presented in Table 4. […] For 1, the IC50 values are closer to cisplatin. In going from 1 to 2, the substitution of two chlorine atoms by the chelating diamine ligand brought about a 1.5-3 times decrease in the antiproliferative activity of 2.

The subject of series [2] is MCF7 (breast cancer cells). Kind of series: In vitro cytotoxic activity, MTT assay, MCF7. The format is cell-based, human. The settings on record: 24 h incubation with complex, mean ± standard deviation. As to the method:
as §1, §2

The next series deals with A549 (lung cancer cells). In words: In vitro cytotoxic activity, MTT assay, A549. The format is cell-based, human. To be noted: 24 h incubation with complex, mean ± standard deviation. As to the method:
as §1, §2

Series [3] can be described thus: Solubility in aqueous medium. The series is classed as physicochemical.
Series [4] concerns A549, MCF7 and HCT15 cells. Kind of series: In vitro cytotoxic activity, statements on the whole panel of three tumor cell lines. The series is classed as cell-based, human. As to the method: as §1, with “After incubation, purple colored formazan crystals were formed due to the reduction of dye by mitochondrial succinate dehydrogenase enzyme. The resultant crystals were solublized by adding 100 μL of dimethylsulfoxide (DMSO).” left out, “All data presented are mean±standard deviation.” left out
The anticancer activity of complexes 1-3 as well as cisplatin was evaluated against a panel of representative human tumor cell lines, which include, lung cancer cells (A549), breast cancer cells (MCF7) and colon cancer cells (HCT15). […]

A short description of series [5]: Cyclic voltammetry of the complexes at glassy carbon electrode. The series is classed as physicochemical. To be noted: cyclic voltammetric measurements. As to the method: The voltammetric measurements were performed by using three electrode based Auto Lab electrochemical workstation (Netherland). The working electrode was glassy carbon electrode (GCE), while Ag/AgCl and platinum were used as reference counter electrodes respectively. The weights of the chemicals were measured by using GR-2000 electrical balance. The pH of the buffer was controlled by Accumet® XL50 pH meter. For electrochemical analysis, the compounds 1 and 2 were dissolved in the ethanol as their solubility was very poor in aqueous medium. Prior to each analysis, the GCE was polished as a mirror like surface with alumina slurry on the synthetic clothe. The cyclic voltammograms for various analyses were recorded from 0.0 V to +1.3 V with a scan rate of 0.1 V/s. Electrochemical behavior may be studied using the methods described by Al-Jaroudi et al. and Seliman et al. (incorporated by reference) and well known model proteins. […]
To get an insight into the reactivity of the complexes, the interactions of complexes 1 and 2 with model proteins, L-tyrosine, glutathione and lysozyme were studied electrochemically. The electrochemical behavior of complexes 1 and 2 in the presence of the proteins was analyzed by cyclic voltammetric technique (CV). […]

In the next series the target is T1, Lysozyme protein (Gallus gallus, UniProt P00698).
T1 construct: the Lysozyme protein attained from chicken egg white; purchased Sigma-Aldrich; host or cells: chicken egg white (natural source)
T1 sequence (P00698 19-147): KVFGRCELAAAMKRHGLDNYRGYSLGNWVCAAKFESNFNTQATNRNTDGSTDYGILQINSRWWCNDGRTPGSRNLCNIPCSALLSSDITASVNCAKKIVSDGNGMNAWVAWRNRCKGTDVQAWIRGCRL
Kind of series: Interaction with lysozyme by cyclic voltammetry. The settings on record: 0.2 mM complex. Also on record: species or system chicken. The procedure: The voltammetric measurements were performed by using three electrode based Auto Lab electrochemical workstation (Netherland). The working electrode was glassy carbon electrode (GCE), while Ag/AgCl and platinum were used as reference counter electrodes respectively. The weights of the chemicals were measured by using GR-2000 electrical balance. The pH of the buffer was controlled by Accumet® XL50 pH meter. For electrochemical analysis, the compounds 1 and 2 were dissolved in the ethanol as their solubility was very poor in aqueous medium. Prior to each analysis, the GCE was polished as a mirror like surface with alumina slurry on the synthetic clothe. The cyclic voltammograms for various analyses were recorded from 0.0 V to +1.3 V with a scan rate of 0.1 V/s. Electrochemical behavior may be studied using the methods described by Al-Jaroudi et al. and Seliman et al. (incorporated by reference) and well known model proteins. See S. S. Al-Jaroudi, M. Altaf, A. Al-Saadi, A.-N. Kawde, S. Altuwaijri, S. Ahmad and A. A. Isab, Biometals, 2015, 28, 827-844; and A. Seliman, M. Altaf, A. Kawde, M. Wazeer and A. Isab, J. Coord. Chem., 2014, 67, 3431-3443, each incorporated herein by reference in their entirety.
Moreover, the interaction of these compounds was also explored with the Lysozyme protein attained from chicken egg white.

In the case of `N.N.[Cl][Pt][Cl]` [Cisplatin, cisplatin, reference compound], the IC50 is 23.1 ± 3.78 µM in series [1], 23.1 ± 3.78 µM in series [2] and 42.9 ± 1.99 µM in the series on A549 (lung cancer cells).
Regarding `NC(c1cccc2ccccc12)C(N)c1cccc2ccccc12.O.O.[Au+3].[Cl-].[Cl-].[Cl-]` (stereo not drawn) [Complex 1, [Au(npen)Cl2]Cl.2H2O], the IC50 in series [1] was found to be 9.4 ± 1.93 µM; in series [2], 11.8 ± 2.6 µM; in the series on A549 (lung cancer cells), 28.8 ± 4.02 µM. Moreover, the “solubility in aqueous medium” value in series [3] was “very poor”. Moreover, the “antiproliferative potency, rank among the complexes” value in series [4] (A549, MCF7, HCT15) is on record as “least active”. For the same compound, the “stability of gold(III) center during reaction with L-tyrosine, glutathione and lysozyme” value in series [5] was “remained stable”. The “effect of successive addition of Lysozyme on the complex peaks” value on Lysozyme protein is on record as “decrease in the current intensities of the complex peaks”. Further, the “interaction with Lysozyme (comparison)” value on Lysozyme protein is recorded as “more significant”.
With [Au(npen)2]Cl3 [Complex 2], the IC50 was 4.23 ± 1.31 µM in series [1], 7.77 ± 1.82 µM in series [2] and 10.3 ± 2.82 µM in the series on A549 (lung cancer cells). Further, in series [3], the “solubility in aqueous medium” value is listed as “very poor”. For the same compound, the “decrease in the antiproliferative activity in going from 1 to 2” value in series [4] (2 compared with 1, three cell lines) is 1.5-3 times. In addition, the “stability of gold(III) center during reaction with L-tyrosine, glutathione and lysozyme” value in series [5] is on record as “remained stable”. On Lysozyme protein, the “effect of successive addition of Lysozyme on the complex peaks” value is on record as “decrease in the current intensities of the complex peaks”.

(Values after US10160773B2, “Method for inducing cytotoxicity in cancer cells” (King Fahd University of Petroleum and Minerals, priority 2016, dated 2018).)
